Assays:
Assay type in all cases: in vivo
Design in all cases: key: 5=81-100%; 4=61-80%; 3=41-60%; 2=21-40%; 1=1-20%; 0=no damage to the plant; -=not tested
[1] = system: Echinochloa crus-galli (ECHCG); assay: Pre-emergence test, herbicidal damage; settings: 1000 g/ha unless otherwise stated, evaluated after 13 days, five-point scale
[2] = system: Amaranthus retoflexus (AMARE); assay: Pre-emergence test, herbicidal damage; settings: 1000 g/ha unless otherwise stated, evaluated after 13 days, five-point scale
[3] = system: Ipomoea hederacea (IPOHE); assay: Pre-emergence test, herbicidal damage; settings: 1000 g/ha unless otherwise stated, evaluated after 13 days, five-point scale
Setaria faberi (SETFA) [4] = assay: Pre-emergence test, herbicidal damage; settings: 1000 g/ha unless otherwise stated, evaluated after 13 days, five-point scale
[5] = system: Amaranthus palmeri (AMAPA); assay: Pre-emergence test, herbicidal damage; settings: 1000 g/ha unless otherwise stated, evaluated after 13 days, five-point scale
Zea mays (ZEAMX) [6] = assay: Pre-emergence test, herbicidal damage; settings: 1000 g/ha unless otherwise stated, evaluated after 13 days, five-point scale
Zea mays (ZEAMX) [7] = assay: Post-emergence test, herbicidal damage; settings: sprayed after 8 days cultivation, 1000 g/ha unless otherwise stated, evaluated after 13 days, five-point scale
Description: (§1) Seeds of a variety of test species are sown in standard soil in pots Amaranthus palmeri (AMAPA), (Amaranthus retoflexus (AMARE), Echinochloa crus-galli (ECHCG), Zea mays (ZEAMX), Ipomoea 5 hederacea (IPOHE), and Setaria faberi (SETFA). After 8 days cultivation under controlled conditions in a glasshouse (at 24° C./16° C., day/night; 14 hours light; 65% humidity), the plants are sprayed with an aqueous spray solution derived from the formulation of the technical active ingredient in acetone/water (50:50) solution containing 0.5% Tween 20 (polyoxyethelyene sorbitan monolaurate, CAS RN 9005-64-5). Compounds are applied at 1000 g/ha unless otherwise stated. The test plants are then grown in a glasshouse under controlled conditions in a glasshouse (at 24° C./16° C., day/night; 14 hours light; 65% humidity) and watered twice daily. After 13 days the test is evaluated for the percentage damage caused to the plant. The biological activities are shown in the following table on a five-point scale (5=81-100%; 4=61-80%; 3=41-60%; 2=21-40%; 1=1-20%; 0=no damage to the plant; -=not tested).

[8] = system: Ipomoea hederacea (IPOHE); assay: Post-emergence test, herbicidal damage; settings: sprayed after 8 days cultivation, 1000 g/ha unless otherwise stated, evaluated after 13 days, five-point scale
Description: as §1

[9] = system: Echinochloa crus-galli (ECHCG); assay: Post-emergence test, herbicidal damage; settings: sprayed after 8 days cultivation, 1000 g/ha unless otherwise stated, evaluated after 13 days, five-point scale
Description: as §1

[10] = system: Amaranthus palmeri (AMAPA); assay: Post-emergence test, herbicidal damage; settings: sprayed after 8 days cultivation, 1000 g/ha unless otherwise stated, evaluated after 13 days, five-point scale
Description: as §1

Setaria faberi (SETFA) [11] = assay: Post-emergence test, herbicidal damage; settings: sprayed after 8 days cultivation, 1000 g/ha unless otherwise stated, evaluated after 13 days, five-point scale
Description: as §1

[12] = system: Amaranthus retoflexus (AMARE); assay: Post-emergence test, herbicidal damage; settings: sprayed after 8 days cultivation, 1000 g/ha unless otherwise stated, evaluated after 13 days, five-point scale
Description: as §1

Row | SMILES | percentage damage caused to the plant, ECHCG [1] | percentage damage caused to the plant, AMARE [2] | percentage damage caused to the plant, IPOHE [3] | percentage damage caused to the plant, SEFTA (Setaria faberi (SETFA) [4]) | percentage damage caused to the plant, AMAPA [5] | percentage damage caused to the plant, ZEAMX (Zea mays (ZEAMX) [6]) | percentage damage caused to the plant, ZEAMX (Zea mays (ZEAMX) [7]) | percentage damage caused to the plant, IPOHE [8] | percentage damage caused to the plant, ECHCG [9] | percentage damage caused to the plant, AMAPA [10] | percentage damage caused to the plant, SEFTA (Setaria faberi (SETFA) [11]) | percentage damage caused to the plant, AMARE [12]
1 | Cc1[nH]c(=O)c(C(=O)O)c(-c2ccc(Cl)c(Cl)c2)c1Br [Compound 1, 5-bromo-4-(3,4-dichlorophenyl)-6-methyl-2-oxo-1H-pyridine-3-carboxylic acid] | 1 (1=1-20%) | 2 (2=21-40%) | 0 | 0 | 3 (3=41-60%) | 0 | 1 (1=1-20%) | 1 (1=1-20%) | 0 | 5 (5=81-100%) | 1 (1=1-20%) | 5 (5=81-100%)
2 | Cc1[nH]c(=O)c(C(=O)O)c(-c2ccc(Cl)c(Cl)c2)c1Cl [Compound 2, 5-chloro-4-(3,4-dichlorophenyl)-6-methyl-2-oxo-1H-pyridine-3-carboxylic acid] | 0 | 0 | 0 | 0 | 0 | 0 | 0 | 0 | 0 | 0 | 0 | 0
3 | Cc1c(Cl)c(-c2ccc(Cl)c(Cl)c2)c(C(=O)O)c(=O)n1-c1ccc(Cl)cc1 [Compound 3, 5-chloro-1-(4-chlorophenyl)-4-(3,4-dichlorophenyl)-6-methyl-2-oxo-pyridine-3-carboxylic acid] | 1 (1=1-20%) | 2 (2=21-40%) | 0 | 2 (2=21-40%) | 4 (4=61-80%) | 0 | 1 (1=1-20%) | 2 (2=21-40%) | 0 | 4 (4=61-80%) | 1 (1=1-20%) | 4 (4=61-80%)
4 | Cc1c(Cl)c(-c2ccc(Cl)c(Cl)c2)c(C(=O)O)c(=O)n1C [Compound 4, 5-chloro-4-(3,4-dichlorophenyl)-1,6-dimethyl-2-oxo-pyridine-3-carboxylic acid] | 0 | 1 (1=1-20%) | 0 | 0 | 1 (1=1-20%) | 0 | 0 | 0 | 0 | 2 (2=21-40%) | 0 | 1 (1=1-20%)
5 | Cc1c(Br)c(-c2ccc(Cl)c(Cl)c2)c(C(=O)O)c(=O)n1C [Compound 5, 5-bromo-4-(3,4-dichlorophenyl)-1,6-dimethyl-2-oxo-pyridine-3-carboxylic acid] | 0 | 0 | 0 | 0 | 0 | 0 | 1 (1=1-20%) | 1 (1=1-20%) | 0 | 1 (1=1-20%) | 0 | 1 (1=1-20%)
6 | Cc1cc(-c2ccc(Cl)c(Cl)c2)c(C(=O)O)c(=O)n1-c1ccc(F)cc1F [Compound 14, 4-(3,4-dichlorophenyl)-1-(2,4-difluorophenyl)-6-methyl-2-oxo-pyridine-3-carboxylic acid] | 0 | 0 | 0 | 0 |  | 0 | 1 (1=1-20%) | 0 | 1 (1=1-20%) | 1 (1=1-20%) | 1 (1=1-20%) | 1 (1=1-20%)
7 | Cc1c(Br)c(-c2ccc(Cl)c(Cl)c2)c(C(=O)O)c(=O)n1-c1ccc(Cl)cc1F [Compound 21, 5-bromo-1-(4-chloro-2-fluoro-phenyl)-4-(3,4-dichlorophenyl)-6-methyl-2-oxo-pyridine-3-carboxylic acid] | 1 (1=1-20%) | 4 (4=61-80%) |  | 1 (1=1-20%) | 4 (4=61-80%) | 0 | 1 (1=1-20%) | 1 (1=1-20%) | 0 | 4 (4=61-80%) | 1 (1=1-20%) | 
8 | Cc1cc(-c2ccc(Cl)c(Cl)c2)c(C(=O)O)c(=O)n1Cc1ccc(C(F)(F)F)cc1F [Compound 27, 4-(3,4-dichlorophenyl)-1-[[2-fluoro-4-(trifluoromethyl)phenyl]methyl]-6-methyl-2-oxo-pyridine-3-carboxylic acid] |  | 0 | 0 | 0 | 1 (1=1-20%) | 0 | 0 |  | 0 | 1 (1=1-20%) | 0 | 0
9 | Cc1c(Br)c(-c2ccc(Cl)c(Cl)c2)c(C(=O)O)c(=O)n1-c1ccc(F)cc1F [Compound 29, 5-bromo-4-(3,4-dichlorophenyl)-1-(2,4-difluorophenyl)-6-methyl-2-oxo-pyridine-3-carboxylic acid] | 1 (1=1-20%) | 1 (1=1-20%) | 1 (1=1-20%) | 1 (1=1-20%) |  | 0 | 0 | 1 (1=1-20%) | 1 (1=1-20%) |  | 1 (1=1-20%) | 1 (1=1-20%)
